This passage reports TGI results from PubChem BioAssay (NCI).

Common to all, as to assay: NCI anticancer screen, dose series, 48 h
Experiment [1] relates to CCRF-CEM leukemia.
Experiment [2] relates to U251 CNS.
For experiment [3], the system named is NCI-H23 lung.
Experiment [4] has as its system OVCAR-8 ovarian.
Experiment [5] deals with NCI-H226 lung.
Experiment [6] deals with SF-295 CNS.
The subject of experiment [7] is OVCAR-5 ovarian.
Experiment [8] concerns IGROV1 ovarian.
Experiment [9] relates to SF-539 CNS.
Experiment [10] has as its system SW-620 colon.
The subject of experiment [11] is HCC-2998 colon.
The test system of experiment [12] is SNB-75 CNS.
The subject of experiment [13] is OVCAR-4 ovarian.
Experiment [14] relates to HS 578T breast.
Experiment [15] relates to M14 melanoma.
Experiment [16] has as its system RXF 393 renal.
Experiment [17] has as its system LOX IMVI melanoma.
Experiment [18] relates to SR leukemia.
Experiment [19] relates to HL-60(TB) leukemia.

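How tested: cells in 96-well plates exposed to compound for 48 hours at five concentrations. TGI: total growth inhibition.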

Regarding `CC(C)CC(NP(=O)(O)OC1OC(C)C(O)C(O)C1O)C(=O)NC(Cc1c[nH]c2ccccc12)C(=O)O` (stereo not given), the TGI in [1], in experiment [2], in experiment [3], in experiment [4], in experiment [5] and in experiment [6] was over 100 µM throughout. Further, the TGI in experiment [7], in experiment [8], in [9], in experiment [10], in experiment [11] and in [12] was over 100 µM each time. In addition, the TGI in experiment [13], in experiment [14] and in experiment [15] was over 100 µM throughout.

For `CCN(CC)c1ccc(C2Nc3ccc4ccccc4c3C3=C2C(=O)CCC3)cc1` (stereo not given), the TGI in experiment [1] is over 100 µM; in experiment [2] it was 33 µM; in [3], over 100 µM; in experiment [4], 38.3 µM; in [5], over 100 µM; in experiment [6], over 100 µM. The TGI in experiment [7] is over 100 µM; in experiment [9], 28.1 µM; in [10], over 100 µM; in experiment [16], 59.1 µM; in [11], over 100 µM; in experiment [12] it was 50.5 µM. Besides, the TGI is 46.4 µM in [13], 34.4 µM in [14] and over 100 µM in [15].

`C[C@@H]1CCC2C(C)(C)C(/C=C\C=O)C3(C)OC213` (stereo not given in full): the TGI is over 100 µM in experiment [2]; over 100 µM in experiment [3]; 44.5 µM in experiment [4]; over 100 µM in [6]; 69.6 µM in experiment [7]; over 100 µM in experiment [8]. In addition, the TGI in experiment [10] was over 100 µM; in experiment [16], over 100 µM; in experiment [11] it was 78.4 µM; in experiment [12], over 100 µM; in experiment [13] it was over 100 µM; in [14] it was 75.6 µM. The TGI in [15] is over 100 µM.

For `CC1(C)OCN(c2ccc(S(N)(=O)=O)cc2)Cn2c1nc1ccccc12`, the TGI in experiment [1], in [2], in [17], in experiment [3], in experiment [4] and in experiment [5] was over 100 µM each time. Also, the TGI in experiment [6], in experiment [18], in experiment [8], in [9], in experiment [10] and in [16] was over 100 µM throughout. For the same compound, the TGI in [11], in experiment [19], in experiment [12], in experiment [13] and in experiment [15] was over 100 µM each time.

Take `COc1cc(C2C(C(=O)Nc3ccc([N+](=O)[O-])cc3)=C(C)NC(C)=C2C(=O)Nc2ccc([N+](=O)[O-])cc2)ccc1O`: the TGI in experiment [1] was over 100 µM; in experiment [2] it was 33.8 µM; in experiment [17], 31.5 µM; in experiment [3], over 77.1 µM; in experiment [4], over 54.2 µM; in [5], over 63.2 µM. Moreover, the TGI is 65.7 µM in experiment [6]; over 95.8 µM in experiment [7]; over 44.1 µM in experiment [18]; 65.4 µM in experiment [8]; 41.1 µM in [9]; 52.3 µM in experiment [10]. Further, the TGI in [16] is 39 µM; in [11], 40.3 µM; in experiment [19] it was over 100 µM; in [12] it was over 86.3 µM; in experiment [13] it was over 70.8 µM; in experiment [15], over 60.5 µM.

For `CCCCCCNC(=S)N/N=C(\C)c1ccccn1`, the TGI in experiment [2] amounted to 14.2 µM; in experiment [17], 12.3 µM; in experiment [3], 18.8 µM; in [4] it was 10.2 µM; in experiment [5] it was 6.28 µM; in experiment [6] it was 12.5 µM. The TGI was 25.9 µM in experiment [7]; 18.4 µM in experiment [8]; 11.9 µM in experiment [9]; 19.3 µM in experiment [10]; 12.5 µM in experiment [16]; 20.9 µM in experiment [11]. In addition, the TGI is 23.9 µM in experiment [12], 34.7 µM in experiment [13], over 100 µM in experiment [14] and 6.86 µM in experiment [15].

As for `COc1ccccc1-n1c(NN)nc2ccc(Br)cc2c1=O`, the TGI in [1], in experiment [2], in experiment [17], in [3], in [4] and in experiment [5] was over 100 µM throughout. In addition, the TGI in [6] was over 100 µM; in [7], 68.8 µM; in [18], over 100 µM; in [8], over 100 µM; in experiment [9] it was 84.5 µM; in experiment [10] it was over 100 µM. For the same compound, the TGI in [16] is over 100 µM; in experiment [11], over 100 µM; in [19] it was 53.1 µM; in experiment [12], over 100 µM; in experiment [13], over 100 µM; in experiment [15], over 100 µM.

For the compound `C/C(=N\NC(=S)NC(CCC(=O)O)C(=O)O)c1cnccn1` (stereo not given), the TGI in experiment [1], in [2], in [17], in [3], in experiment [4] and in experiment [5] was over 100 µM each time. Moreover, the TGI in experiment [6], in experiment [7], in experiment [18], in [8], in experiment [9] and in experiment [10] was over 100 µM each time. The TGI in experiment [16], in experiment [11], in experiment [19], in experiment [12], in experiment [13] and in [15] was over 100 µM throughout.
